Laboratory results taken from US8106056B2, “Combination preparations comprising bifeprunox and a dopamine agonist” (Solvay Pharmaceuticals B.V., priority 2006, dated 2012).
“Also recorded” adds a separate entry of the source.

Legend:
[1] = tested on: MPTP-treated common marmosets; assay: Locomotor activity in MPTP-treated common marmosets (automated activity cages); assay type: in vivo, common marmosets (Callithrix jacchus)
Description: (§1) These animals were L-DOPA responsive and not test drug naive. They had not been experimentally primed for dyskinesia although some dyskinesia was present.
(§2) Drug treatment: Bifeprunox mesylate was suspended in 10% sucrose solution and administered orally by gavage in a volume of 2.0 ml/kg. L-DOPA: L-3,4-Dihydroxyphenylalanine (L-dopa) methylester (Sigma Chemical Co, UK) was dissolved in 10% sucrose solution and administered orally by gavage in a volume of 2.0 ml/kg. Carbidopa: (Merck, Sharp and Dohme, UK) was administered orally as a suspension in 10% sucrose solution in a volume of 2.0 ml/kg. Domperidone: (2.0 mg/kg po, Sigma UK) was dissolved in 10% sucrose and administered 60 min prior to bifeprunox in a volume of 2.0 ml/kg, Bifeprunox (4 or 8 mg/kg po free base) or its vehicle (10% sucrose) was administered alone and in combination with L-DOPA (7.5 mg/kg po free base, given in combination with carbidopa, 12.5 mg/kg po) to MPTP-treated marmosets (n=6). Animals were treated with bifeprunox or its vehicle 90 min prior to administration of L-DOPA or its vehicle administration. Carbidopa was administered 30 minutes prior to administration of L-DOPA. Domperidone was administered 60 min prior to bifeprunox administration.
Behavioral Studies: In all studies, animals were acclimatised to behavioral study cages for 1 hour prior to treatment. The animals were placed individually into activity cages (50×60×70 cm) fitted with a clear perspex door to allow clear visibility for observation. Each cage was equipped with 8 horizontally orientated infrared photocell emitters and their corresponding detectors arranged so as to permit maximum assessment of movement. Locomotor activity was assessed as the number of light beam interruptions caused by movement of the animals accumulated in 10-minute intervals for up to 7 hours. The animals were allowed a 60-minute acclimatisation period in the activity cages during which baseline activity was assessed, before drug administration. ‘On’ Threshold was defined as 3 times baseline activity in MPTP-treated marmosets. Hyperactivity was defined as 3 times normal activity in naive marmosets. ‘On’ time was the period of time in minutes that activity was above the ‘On’ Threshold. Animals were treated with bifeprunox, vehicle and/or L-DOPA. Following drug treatment, animals were assessed for locomotor activity and disability as described below for up to 6 h following drug administration. The animals used in the study were in the automated activity cages for no longer than 8 h on any study day, and were allowed at least 3 days recovery period between drug treatments to ensure appropriate animal welfare consideration. The locomotor activity, motor disability and presence of dyskinesia were assessed as follows:
Locomotor Activity: In all studies the animals were acclimatised to behavioral study cages for 1 hour prior to bifeprunox treatment. Animals were then treated with appropriate drugs. Following treatment, animals were assessed for antiparkinsonian activity for up to 6 h using automated activity cages and by the rating of disability by an observer blinded to the treatment.
(§3) Data and Statistical Analysis: Data are presented as median locomotor activity (counts/30 min) or disability score (score over 10 min/30 min) over the 7 hour period of the experiment, or as total locomotor activity (counts/420 min) or disability (total score over 420 min). Data were analysed by Kruskall Wallis ANOVA and post-hoc Man-Whitney test where appropriate. Analyses were corrected for multiple comparisons using the formula: Acceptable probability=α/number of comparisons where α=5% A separate group of animals from those used in the study were treated with vehicle and were used for statistical comparison.

[2] = tested on: MPTP-treated common marmosets; assay: Disability rating in MPTP-treated common marmosets; assay type: in vivo, common marmosets (Callithrix jacchus)
Description: as §1, §2
Disability and dyskinesia scores: Disability and dyskinesia was assessed before, and during the last 10 minutes in every 30 min period after bifeprunox administration for up to 6 hours following drug treatment. The following disability rating scales were used:
Rating of disability: The disability of animals was scored as follows; alertness (normal 0, sleepy 2); reaction (normal 0, reduced 1, slow 2, absent 3); checking movements (present 0, reduced 1, absent 2); attention and eye movements (normal 0, abnormal 1); posture (normal 0, abnormal trunk+1, abnormal limbs+1, abnormal tail+1, or grossly abnormal 4); balance/co-ordination (normal 0, impaired 1, unstable 2, spontaneous falls 3); vocalisation (normal 0, reduced 1, absent 2); motility (normal 0, bradykinesia/hyperkinesia 1, akinesia/hyperkinesia 2). Sedation was noted if present.
as §3

dopamine D2/3 receptors = conditions: cited from earlier work
[3] = target: T1, serotonin 5-HT1A receptors (Homo sapiens, UniProt P08908); conditions: cited from earlier work
T1 sequence (P08908 1-422): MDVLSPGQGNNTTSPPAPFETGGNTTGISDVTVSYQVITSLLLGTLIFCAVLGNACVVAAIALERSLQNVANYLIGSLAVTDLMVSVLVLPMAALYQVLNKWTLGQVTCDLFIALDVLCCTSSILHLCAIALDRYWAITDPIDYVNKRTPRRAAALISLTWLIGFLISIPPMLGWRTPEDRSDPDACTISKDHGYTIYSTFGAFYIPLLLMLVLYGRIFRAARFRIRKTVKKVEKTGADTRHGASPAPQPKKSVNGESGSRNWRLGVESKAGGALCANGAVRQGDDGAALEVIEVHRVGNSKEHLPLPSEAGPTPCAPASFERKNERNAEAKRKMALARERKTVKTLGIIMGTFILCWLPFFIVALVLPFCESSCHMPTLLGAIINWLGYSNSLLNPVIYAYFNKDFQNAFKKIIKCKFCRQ

[4] = bifeprunox 4 mg/kg po 90 min prior to L-DOPA 7.5 mg/kg po plus carbidopa 12.5 mg/kg po
[5] = bifeprunox 4 mg/kg po alone, p<0.05, Mann Whitney
[6] = bifeprunox 8 mg/kg po 90 min prior to L-DOPA 7.5 mg/kg po plus carbidopa 12.5 mg/kg po
[7] = bifeprunox 8 mg/kg po alone, p<0.05, Mann Whitney
[8] = L-DOPA 7.5 mg/kg po plus carbidopa 12.5 mg/kg po 30 min prior

O=c1[nH]c2cccc(N3CCN(Cc4cccc(-c5ccccc5)c4)CC3)c2o1 [bifeprunox, 7-[4-([1,1′-biphenyl]-3-ylmethyl)-1-piperazinyl]-2(3H)-benzoxazolone]
Locomotor activity compared to L-DOPA alone and bifeprunox (4 mg/kg po) alone [1, 4]: tended to increase | locomotor On-Time compared to the single treatments [1, 4]: slightly greater than that seen after L-DOPA alone and bifeprunox | locomotor activity compared to baseline [1, 4]: increased | median duration of activity (locomotor On-Time) [1, 4]: 390 min/420 min | locomotor activity compared to vehicle administration ([1]; bifeprunox 4 mg/kg po alone): increased | median duration of activity (locomotor On-Time) ([1]; bifeprunox 4 mg/kg po alone): 240 min/420 min | Total locomotor activity and locomotor 'On-Time' versus vehicle [1, 5]: greater than in vehicle-treated animals | Total locomotor activity and duration of activity (On-time) compared to bifeprunox (8 mg/kg po) alone and L-DOPA plus carbidopa alone [1, 6]: not different | locomotor On-Time compared to bifeprunox alone [1, 6]: slightly shorter than bifeprunox alone | locomotor activity compared to baseline [1, 6]: increased | median duration of activity (locomotor On-Time) [1, 6]: 300 min/420 min | locomotor activity compared to vehicle administration ([1]; bifeprunox 8 mg/kg po alone): increased | median duration of activity (locomotor On-Time) ([1]; bifeprunox 8 mg/kg po alone): 345 min/420 min | Total locomotor activity versus vehicle [1, 7]: greater than vehicle-treated animals | total locomotor activity and locomotor 'On-Time' compared to L-DOPA alone ([1]; bifeprunox 4 or 8 mg/kg po given in combination with L-DOPA): tended to increase | duration of activity ('on'-time) following L-DOPA ([1]; co-administration with L-DOPA): increased | peak locomotor activity as observed after L-DOPA alone ([1]; combined treatment with L-DOPA, hyperactivity was not observed): reduced | Duration of activity (disability On-Time) [2, 4]: 360 min/420 min | Duration of activity (disability On-Time) compared to bifeprunox alone [2, 4]: tended to increase | disability scores over the period of the study [2, 4]: decreased | Median duration of activity (disability On-Time) ([2]; bifeprunox 4 mg/kg po alone): 210 min/420 min | disability scores compared to vehicle administration [2, 5]: decreased | Duration of activity (disability On-Time) [2, 6]: 165 min/420 min | Duration of activity (disability On-Time) compared to bifeprunox (8 mg/kg po) alone or L-DOPA plus carbidopa [2, 6]: not different | disability scores [2, 6]: decreased | Duration of activity (disability On-Time) ([2]; bifeprunox 8 mg/kg po alone): 225 min/420 min | Total decrease in disability versus vehicle ([2]; bifeprunox 8 mg/kg po alone): lower than vehicle-treated animals | disability scores compared to vehicle treatment [2, 7]: decreased | functional activity at dopamine D2/3 receptors (dopamine D2/3 receptors): partial agonist | functional activity at serotonin 5-HT1A receptors [3]: partial agonist; also recorded: full agonism

N[C@@H](Cc1ccc(O)c(O)c1)C(=O)O [L-DOPA, L-3,4-Dihydroxyphenylalanine, reference compound]
locomotor activity compared to vehicle administration [1, 8]: increased | median duration of activity (locomotor On-Time) [1, 8]: 180 min/420 min | Total locomotor activity and locomotor 'on-time' versus vehicle ([1]; L-DOPA 7.5 mg/kg po plus carbidopa 12.5 mg/kg po, p<0.05, Mann Whitney): greater than vehicle-treated animals | disability 'On-Time' [2, 8]: 120 min/420 min | time at which peak disability score was reached after administration (median) [2, 8]: 75 min | disability scores compared to vehicle administration ([2]; L-DOPA 7.5 mg/kg po plus carbidopa 12.5 mg/kg po 30 min prior, p<0.05, Mann Whitney): decreased
